Structures can show the parent of a compound that is named as a salt.
Columns and labels:
rat left atria [1] = experiment: Spontaneous tachycardic activity (STA) in isolated rat left atria exposed to 2-APB under increased calcium load; details: for effect of If inhibitor on left atrial STA: BayK 8644 and 2-APB, zatebradine 70 μM, ZD-7288 titration to 100 μM
Protocol: (§1) Male Sprague-Dawley rats (325-400 g) were anesthetized with intra-peritoneal pentobarbital (0.1 g/kg). Their right and left atria were isolated, superfused at 30° C. in Krebs-Henseleit buffer, and nearly isometric forces of contraction were measured from these muscles (Wolkowicz et al., 2002). 2-APB was prepared as a 150 mM dimethyl sulfoxide stock.
(§2) Left atria (n=8 per group) were paced at 3 Hz and (i) titrated with 0 to 30 nM isoproterenol (Ahlquist, 1970) or (ii) exposed to 3 μM forskolin (Laurenza et al., 1980). Left atrial force and frequency of contraction, the time to peak tension and relaxation times were recorded after a 3-5 min exposure to forskolin or to any concentration of isoproterenol. The 3 Hz pacing stimulus was interrupted at the end of these protocols to measure SMEs.
(§3) Left atria (n=10 per group) were paced at 0.1 Hz and treated with (i) 20 μM 2-APB for 10 min, (ii) with 30 nM isoproterenol for 5 min followed by 20 μM 2-APB for 10 min, and (iii) with 3 μM forskolin for 5 min followed by 20 μM 2-APB for 10 min.
Left atrial contraction and relaxation times were recorded at these five times, the pacing stimulus was stopped and rates of SMA were recorded. To determine whether initial pacing rate affects left atrial response to 2-APB and isoproterenol, left atria (n=5-7 per group) were paced at 3 Hz and (i) remained untreated for 15 min, (ii) were treated with 20 μM 2-APB alone for 10 min, or (ii) were treated with 30 nM isoproterenol for 5 min followed by 20 μM 2-APB for 10 min. Atrial mechanical function was measured at these four times; the pacing stimulus then was stopped and rates of SMA were recorded.
(§4) Left atria (n=6 per group) were paced at 3 Hz, titrated with 0 to 300 nM (−)BayK 8644 ([…]-1,4-Dihydro-2,6-dimethyl-5-nitro-4-[2-(trifluormethyl)phenyl]-3-pyridinecarboxylic acid methyl ester; Franckowiak et al. 1985) or FPL-64176 ((2,5-Dimethyl-4-[2-(phenylmethyl)benzoyl]-111-pyrrole-3-carboxylic acid methyl ester; Zheng et al., 1991) and their mechanical function and rates of SMA were recorded after a 5 min exposure to any concentration of slow calcium channel activator.
Left atria (n=8 per group) were paced at 0.1 Hz, exposed to 300 nM BayK 8644 or FPL-64176 for 5 min followed by 20 μM 2-APB for 10 min. Atrial mechanical function was recorded at this time; the pacing stimulus then was stopped and rates of SMA were recorded.
(§5) To test whether ryanodine receptor calcium leak produces SMA, left atria (n=6 per group) were paced at 0.1 Hz, treated with 0 or 300 nM BayK 8644 for 5 min, and then exposed to 600 nM ryanodine (Sutko et al., 1997). Atrial mechanical function and rates of SMA were recorded 20 min after exposure to ryanodine.
Rates of SMA were measured 5 min later.
(§6) Left atria (n=7) were paced at 3 Hz, treated with 120 μM ouabain (Illanes and Marshall, 1964), and any change in mechanical function was recorded at a new steady state, ˜10 min later. These atria were exposed to 20 μM 2-APB and their mechanical function and rates of SMA were recorded 10 min later.
3 Hz-paced left atria (n=9 per group) were superfused (i) in Krebs-Henseleit alone or (ii) they were treated with 20 μM 2-APB for 10 min, (iii) with 300 nM BayK 8644 for 10 min and with 20 μM 2-APB for 10 min, or (iv) they were treated with 300 nM BayK 8644 and 20 μM 2-APB for 10 min, then with 70 μM zatebradine (3-[3-[[2-(3,4-Dimethoxyphenyl)ethyl]methylamino] propyl]-1,3,4,5-tetrahydro-7,8,-dimethoxy-2H-3-benzazepin-2-one hydrochloride) for 10 min (Baruscotti et al., 2005). Pacing was interrupted at these times and rates of SMA were recorded.

rat right atria = experiment: Right atrial spontaneous (pacemaker-driven) contraction frequency
Protocol: as §1
Left atria (n=9) were paced at 0.1 Hz, treated with 300 nM BayK 8644 for 5 min, then with 20 μM 2-APB for 10 min, and the pacing stimulus was stopped. These preparations then were incubated with six increasing concentrations of zatebradine (10-100 μM) for 3-5 min at each concentration, and rates of SMA were recorded. Untreated right atria (n=9) also were titrated with zatebradine and its effect on contraction frequency was recorded.
To test whether zatebradine affects the SMA occurring in the presence of 2-APB and isoproterenol, left atria (n=7) were paced at 0.1 Hz, treated with 30 nM isoproterenol for 5 min, then with 20 μM 2-APB for 10 min, and the pacing stimulus was stopped. Rates of SMA were recorded, these left atria were exposed to 70 μM zatebradine for 10 min, and rates of SMA were recorded again. A group of right atria (n=7) also were exposed to 30 nM isoproterenol for 5 min and then to 70 μM zatebradine for 10 min. Right atrial contraction frequency was recorded at these two times.
To test whether ZD-7288 (4-Ethylphenyl amino-1,2-dimethyl-6-methylaminopyridinium chloride), an If inhibitor structurally unrelated to zatebradine (Baruscotti et al., 2005; Sanders et al., 2006) affects the SMA occurring in the presence of 2-APB and BayK 8644, rat left atria (n=7) were treated with 300 nM BayK 8644 for 5 min, then with 20 μM 2-APB for 10 min, and the rates of SMA were recorded. These atria then were incubated with six increasing concentrations of ZD-7288 (10-100 μM) for 3-5 min at each concentration, and the rates of SMA were recorded. Right atria (n=7) were titrated similarly with ZD-7288 (0-100 μM) and the change in their contraction frequency was recorded.

[2] = tested on: rat left atrial appendage; experiment: 2-APB-induced spontaneous mechanical activity (SMA/SMEs) in isolated superfused rat left atria / left atrial appendage; details: 0.1 Hz paced, 15 μM 2-APB, titration after appearance of SMA
Protocol: (§7) Left atria were isolated from male Sprague-Dawley rats (325 to 400 g) under IP pentobarbital anesthesia (0.1 g/kg). Isolated left atria were superfused at 30° C. in Krebs-Henseleit (KH) buffer of the following mM composition: NaCl, 118; NaHCO3, 27; KCl, 4.8; MgSO4, 1.2; KH2PO4, 1.0; CaCl2, 1.8; and glucose, 11.1. Nearly isometric left atrial forces of contraction were measured as described.
Isolated superfused left atria were paced at 3 Hz. 2-APB was added to atrial superfusates from 0.015 or 0.15M DMSO stock solutions to achieve concentrations of 0, 2, 7.5, 15, or 22 μM (n=5 to 10 atria per concentration). Changes in atrial mechanical force were recorded during a subsequent 15 min superfusion.
Two groups of 5 to 6, 3 Hz paced atria were superfused in KH and exposed to 0 or 15 μM 2-APB for 10 min. The pacing stimulus was interrupted for 5 min and the number of spontaneous mechanical events (SMEs), defined as increases in mechanical force occurring in the absence of pacing, were measured as was the postrest potentiation response (PRP).
To determine whether diastolic interval affected the interaction between 2-APB and left atria, atrial pacing was decreased to 0.1 Hz, and 0, 7.5, or 22 μM 2-APB was added to the superfusate (n=6-8 per group). Superfusions continued for 15 min, and changes in atrial mechanical function were observed.
To establish whether SMA was reversible, atria (n=7) were paced at 0.1 Hz, exposed to 15 μM 2-APB for 10 min, and washed with KH. The effect of removing 2-APB on atrial mechanical function was recorded.
To test whether an anion transport inhibitor affected SMA, atria (n=7) were paced at 0.1 Hz in KH and exposed to 15 μM 2-APB. Following the appearance of SMA, they were titrated with 100 to 400 μM DIDS for 3 to 5 min at each concentration. Whether SMA occurred at the end of each titration period was recorded.
as §3
The appendages then were titrated with increasing concentrations of 2-APB, and SMA was measured and recorded.
(§8) To determine the anti-arrhythmic activity of gossypol, isolated rat left atrial appendage and right ventricular muscle strips were used as model systems, as described above. Heart muscle was exposed to 20 μM 2-APB for 10 min to induce SMA, and rates of SMA were recorded as a percentage of initial SMA. The muscles then were titrated with up to 5 increasing concentrations of gossypol. Rates of SMA were recorded ˜10 min after the addition of concentration of the polyphenol.
To determine whether EGCG can prevent arrhythmia, rat left atrial appendages (n=9) were exposed to 20 μM 2-APB and rates of SMA were recorded. Groups of muscles (n=6 per) were pre-treated with 30 μM EGCG for 10 min following which they were exposed to 2-APB. Rates of SMA were recorded 10 min later.
as §8, with “whether EGCG is effective to reverse arrhythmia,” for “the anti-arrhythmic activity of gossypol,”, “Rat left atrial appendages were” for “Heart muscle was”, “left atrial appendages” for “muscles”, “the following polyphenols: EGCG, gossypol, resveratrol, and quercetin.” for “gossypol.”
To determine whether EGC can prevent arrhythmia, left atrial appendages (n=9) were exposed to 20 μM 2-APB and rates of SMA were recorded. Groups of appendages (n=6 per) were pre-treated with 30 μM EGC for 10 min following which they were exposed to 2-APB.

rat left atria [3] = experiment: Left atrial force of contraction / post-rest potentiation maximum force
Protocol: as §7
The initial potentiated beat following prolonged rest (i.e., the PRP maximum force of contraction) reflects activator calcium available for SR release. The PRP response was used to obtain an indirect measure of left atrial SR calcium under our conditions.
Left atria (n=6) were superfused in KH, paced at 0.1 Hz, and subjected to PRP. Superfusion proceeded for another 35 min, and a second PRP was performed. These 2 forces were compared to assure the mechanical stability of our preparations.
One group (n=8) was superfused in KH, paced at 0.1 Hz, and their maximum force of contraction was measured. These atria were washed with KH containing 82 mM sodium, and a second PRP was performed 23 min later.
A second group (n=8) was paced at 0.1 Hz in KH and subjected to PRP. They were exposed to 22 μM 2-APB and, after the appearance of SMA, were washed with KH containing 22 μM 2-APB and 82 mM sodium. Superfusion continued for 23 min and a second PRP was performed.
Control 0.1 Hz paced atria (n=8) were subjected to PRP and exposed to 400 μM DIDS, and a second PRP was performed 23 min later.
A group of atria (n=8) were paced at 0.1 Hz in KH and subjected to PRP. They were exposed to 22 μM 2-APB, 400 μM DIDS was added to the superfusate after the appearance of SMA, and a second PRP was performed 23 min later.
as §2, §4, §5, §6
To test whether zatebradine affects left atrial force of contraction, two groups of left atria (n=9 per group) were paced at 3 Hz and treated with 300 nM BayK 8644. Five minutes later one group was incubated with six increasing concentrations of zatebradine (10-100 μM) for 3-5 min at each concentration, and forces of contraction were recorded. A second group was treated with BayK 8644 but not zatebradine, and forces of contraction were recorded at corresponding times.

Row | Compound | effect of If inhibitor on left atrial STA (rat left atria [1]) | effect on right atrial contraction frequency (rat right atria; ZD-7288 titration 0-100 μM) | DIDS concentration that reversed SMA completely [2] | maximum forces of left atrial contraction, beginning vs end of 35-min superfusion (rat left atria [3]; 400 μM DIDS alone, no 2-APB) | IC50 (rat left atria [1]; Rattus norvegicus, intact left atria exposed to BayK 8644 and 2-APB, read-out: IC50 for decrease of STA) | rate of appendage STA (rat left atria [1]; isoproterenol+2-APB+70 μM zatebradine) | IC50 (rat right atria; Rattus norvegicus, untreated right atria titrated with zatebradine, read-out: IC50 for decrease of right atrial contraction frequency) | right atrial contraction frequency (rat right atria; isoproterenol+70 μM zatebradine) | maximum decrease of right atrial contraction frequency (rat right atria; zatebradine titration) | left atrial force of contraction (rat left atria [3]; 3 Hz paced, 300 nM BayK 8644, titrated with 10-100 μM zatebradine)
1 | CCN(c1ccccc1)c1cc(NC)[n+](C)c(C)n1.[Cl-] [ZD-7288] | decreases left atrial STA | decreases right atrial contraction frequency less robustly than zatebradine |  |  |  |  |  |  |  | 
2 | O=S(=O)(O)c1cc(N=C=S)ccc1C=Cc1ccc(N=C=S)cc1S(=O)(=O)O [DIDS, 4,4′-diisothiocyanatostilbene-2,2′-disulfonic acid] |  |  | > 300 µM | not different |  |  |  |  |  | 
3 | COc1ccc(CCN(C)CCCN2CCc3cc(OC)c(OC)cc3CC2=O)cc1OC [zatebradine, 3-[3-[[2-(3,4-Dimethoxyphenyl)ethyl]methylamino]propyl]-1,3,4,5-tetrahydro-7,8,-dimethoxy-2H-3-benzazepin-2-one hydrochloride] | significantly decreases |  |  |  | 58 ± 5 µM | 110±24.5 contractions/min | 12 ± 1.1 µM | 212±9.7 contractions/min | ~50% | 95±3.8 % of initial force
